ChEMBL document CHEMBL1130281, “Structure-based design of a new bisintercalating anthracycline antibiotic” (1997)

Columns and labels:
MCF7-VP = experiment: In vitro cytotoxicity against multi drug resistant human breast carcinoma (MCF-7/VP-16) cell line; type: functional; details: read-out: ID50 (the source's name)
MCF7 = experiment: In vitro cytotoxicity against human breast carcinoma cell line (MCF-7); type: functional; details: read-out: ID50 (the source's name)
[1] = RI is the ratio of cytotoxicity against MCF-7/VP-16 cell line to that of MCF-7 cell line; type: functional, MCF7

COc1cccc2c1C(=O)c1c(O)c3c(c(O)c1C2=O)C[C@@](O)(C(C)=O)C[C@@H]3OC1CC(NCc2ccc(CNC3CC(O[C@H]4C[C@](O)(C(C)=O)Cc5c(O)c6c(c(O)c54)C(=O)c4c(OC)cccc4C6=O)OC(C)C3O)cc2)C(O)C(C)O1.Cl.Cl (some centres undefined) [BISANTHRACYCLINE (WP631)]
IC50 (MCF7-VP): 2.5 µM
IC50 (MCF7): 4.8 µM
RI [1]: 0.5

COc1cccc2c1C(=O)c1c(O)c3c(c(O)c1C2=O)C[C@@](O)(C(=O)CO)C[C@@H]3O[C@H]1C[C@H](N)[C@H](O)[C@H](C)O1 [DOXORUBICIN]
IC50 (MCF7-VP): 14.2 µM
